ChEMBL document CHEMBL1146367, “Substituted thiophene-anthranilamides as potent inhibitors of human factor Xa” (Bioorg Med Chem, 2007)

Legend:
Coagulation factor X = Coagulation factor X (Homo sapiens, UniProt P00742); experiment: Binding affinity to human factor 10a after 10 mins; settings: read-out: Ki app
Prothrombin = Prothrombin (Homo sapiens, UniProt P00734); experiment: Binding affinity to human thrombin after 10 mins; settings: read-out: Ki app
[1] = Binding affinity to bovine trypsin after 10 mins; parameters: species or system Bos taurus; settings: read-out: Ki app
Plasma = experiment: Anticoagulant activity in human plasma assessed as concentration required to double prothrombin time; type: functional, cell-free
[2] = Half life in Beagle dog at 1 mg/kg, iv; type: ADME, organism-based, Canis lupus familiaris; parameters: dose 1 mg/kg, route intravenous; settings: in vivo
[3] = Clearance in Beagle dog at 1 mg/kg, iv; type: ADME, organism-based, Canis lupus familiaris; parameters: dose 1 mg/kg, route intravenous; settings: in vivo
[4] = Volume of distribution at steady state in Beagle dog at 1 mg/kg, iv; type: ADME, organism-based, Canis lupus familiaris; parameters: dose 1 mg/kg, route intravenous; settings: in vivo, read-out: Vdss
[5] = Plasma concentration in Beagle dog at 10 mg/kg, po; type: ADME, organism-based, Canis lupus familiaris; parameters: dose 10 mg/kg, route oral
[6] = Bioavailability in Beagle dog at 10 mg/kg, po; type: ADME, organism-based, Canis lupus familiaris; settings: in vivo
[7] = Dissociation constant, pKa of the compound; type: physicochemical

Coagulation factor X, sequence (P00742 41-179 limits assumed): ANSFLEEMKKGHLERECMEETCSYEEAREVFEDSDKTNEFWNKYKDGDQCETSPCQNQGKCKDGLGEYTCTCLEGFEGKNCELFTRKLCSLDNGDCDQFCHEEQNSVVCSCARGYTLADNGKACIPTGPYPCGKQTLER
Coagulation factor X, sequence (P00742 235-488 limits assumed): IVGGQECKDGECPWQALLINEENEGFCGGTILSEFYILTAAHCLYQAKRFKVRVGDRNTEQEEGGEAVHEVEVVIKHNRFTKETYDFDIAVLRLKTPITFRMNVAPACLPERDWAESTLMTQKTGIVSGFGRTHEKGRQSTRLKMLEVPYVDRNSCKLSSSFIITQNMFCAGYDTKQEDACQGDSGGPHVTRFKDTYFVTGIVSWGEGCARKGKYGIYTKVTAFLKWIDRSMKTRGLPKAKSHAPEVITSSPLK

Ki (Coagulation factor X) [nM]	Ki (Prothrombin) [nM]	Ki [1] [nM]	half-life [2] [h]	clearance [3] [mL/min/kg]	Vd [4] [L/kg]	Cmax [5] [µM]	bioavailability [6] [%]	pKa [7]	SMILES	Cp (Plasma) [µM]
1.7	> 5000	> 5000							O=C(Nc1ccc(Cl)cc1)c1cc(Cl)ccc1NC(=O)c1scc(Cn2cnnn2)c1Cl	29
6.2	2300	> 5000							O=C(Nc1ccc(Cl)cc1)c1cc(Cl)ccc1NC(=O)c1scc(CN2CCOCC2)c1Cl	59
7.2	510	> 5000							O=C(Nc1ccc(Cl)cc1)c1cc(Cl)ccc1NC(=O)c1sc(Cn2ccnc2)cc1Cl	24
1	910	> 5000	2	5	0.7	6.3	41		CN1CCN(Cc2csc(C(=O)Nc3ccc(Cl)cc3C(=O)Nc3ccc(Cl)cc3)c2Cl)CC1	12
1.5	1100	> 5000							CN(CCOCCO)Cc1csc(C(=O)Nc2ccc(Cl)cc2C(=O)Nc2ccc(Cl)cc2)c1Cl	8.8
14	> 5000	> 5000							CN(C)Cc1ccc2c(Cl)c(C(=O)Nc3ccc(Cl)cc3C(=O)Nc3ccc(Cl)cc3)sc2c1	
34	> 5000	> 5000							O=C(Nc1ccc(Cl)cc1)c1cc(Cl)ccc1NC(=O)c1sc(CN2CCOCC2)cc1Cl	> 500
1.4	990	> 5000							CN(Cc1csc(C(=O)Nc2ccc(Cl)cc2C(=O)Nc2ccc(Cl)cc2)c1Cl)CC(O)CO (centres undefined)	11
2	> 5000	> 5000							O=C(Nc1ccc(Cl)cc1)c1cc(Cl)ccc1NC(=O)c1scc(Cn2ncnn2)c1Cl	63
6	4400	> 5000							CC(=O)N1CCN(Cc2csc(C(=O)Nc3ccc(Cl)cc3C(=O)Nc3ccc(Cl)cc3)c2Cl)CC1	
4.8	> 5000	> 5000							O=C(Nc1ccc(Cl)cc1)c1cc(Cl)ccc1NC(=O)c1scc(CN2CCSCC2)c1Cl	400
3.4	3200	> 5000							O=C(Nc1ccc(Cl)cc1)c1cc(Cl)ccc1NC(=O)c1scc(CNCCOCCO)c1Cl	20
0.8	830	> 5000							CN(CCO)Cc1csc(C(=O)Nc2ccc(Cl)cc2C(=O)Nc2ccc(Cl)cc2)c1Cl	7
0.45	160	> 5000							CN(C)CCN(C)Cc1csc(C(=O)Nc2ccc(Cl)cc2C(=O)Nc2ccc(Cl)cc2)c1Cl	4.6
0.3	160	> 5000							CN(CCN1CCCC1)Cc1csc(C(=O)Nc2ccc(Cl)cc2C(=O)Nc2ccc(Cl)cc2)c1Cl	5
7.5	1500	> 5000							CCCNCc1sc(C(=O)Nc2ccc(Cl)cc2C(=O)Nc2ccc(Cl)cc2)c(Cl)c1CNCCC	19
5.2	2300	> 5000							CCOC(=O)CN(C)Cc1csc(C(=O)Nc2ccc(Cl)cc2C(=O)Nc2ccc(Cl)cc2)c1Cl	160
1.4	2700	> 5000							O=C(Nc1ccc(Cl)cc1)c1cc(Cl)ccc1NC(=O)c1scc(Cn2ccnn2)c1Cl	15
0.8	> 5000	> 5000							CSCc1csc(C(=O)Nc2ccc(Cl)cc2C(=O)Nc2ccc(Cl)cc2)c1Cl	> 200
2.1	550	> 5000							O=C(Nc1ccc(Cl)cc1)c1cc(Cl)ccc1NC(=O)c1scc(Cn2cccn2)c1Cl	49
21	> 5000	> 5000							CN1CCN(Cc2ccc3c(Cl)c(C(=O)Nc4ccc(Cl)cc4C(=O)Nc4ccc(Cl)cc4)sc3c2)CC1	
0.95	> 5000	> 5000							Cc1ccc2c(Cl)c(C(=O)Nc3ccc(Cl)cc3C(=O)Nc3ccc(Cl)cc3)sc2c1	
10	3600	> 5000							COCCOCCOCc1csc(C(=O)Nc2ccc(Cl)cc2C(=O)Nc2ccc(Cl)cc2)c1Cl	95
1.9	1000	> 5000							O=C(Nc1ccc(Cl)cc1)c1cc(Cl)ccc1NC(=O)c1scc(Cn2ccnc2)c1Cl	18

Ki (Coagulation factor X) [nM]	Ki (Prothrombin) [nM]	Ki [1] [nM]	half-life [2] [h]	clearance [3] [mL/min/kg]	Vd [4] [L/kg]	Cmax [5] [µM]	bioavailability [6] [%]	pKa [7]	SMILES	Cp (Plasma) [µM]
4.6	1800	> 5000							O=C(Nc1ccc(Cl)cc1)c1cc(Cl)ccc1NC(=O)c1scc(CNCCCn2ccnc2)c1Cl	24
20	> 5000	> 5000							CC1(C)OCC(COCc2csc(C(=O)Nc3ccc(Cl)cc3C(=O)Nc3ccc(Cl)cc3)c2Cl)O1 (centres undefined)	
0.4	970	> 5000							C[S+]([O-])Cc1csc(C(=O)Nc2ccc(Cl)cc2C(=O)Nc2ccc(Cl)cc2)c1Cl (centres undefined)	5.6
9.5	> 5000	> 5000							O=C(O)CN1CCN(Cc2ccc3c(Cl)c(C(=O)Nc4ccc(Cl)cc4C(=O)Nc4ccc(Cl)cc4)sc3c2)CC1	
	> 5000	> 5000							O=C(Nc1ccc(Cl)cc1)c1cc(Cl)ccc1NC(=O)c1sc2ccccc2c1Cl	
3.5	3300	> 5000							O=C(Nc1ccc(Cl)cc1)c1cc(Cl)ccc1NC(=O)c1scc(Cn2nccn2)c1Cl	83
2.1	> 5000	> 5000							CS(=O)(=O)Cc1csc(C(=O)Nc2ccc(Cl)cc2C(=O)Nc2ccc(Cl)cc2)c1Cl	14
5.6	1000	> 5000							CN1CCN(Cc2cc(Cl)c(C(=O)Nc3ccc(Cl)cc3C(=O)Nc3ccc(Cl)cc3)s2)CC1	13
1.6	> 5000	> 5000							CCN1CCN(Cc2csc(C(=O)Nc3ccc(Cl)cc3C(=O)Nc3ccc(Cl)cc3)c2Cl)CC1	12
10	1500	> 5000							Cc1c(CN2CCN(C)CC2)sc(C(=O)Nc2ccc(Cl)cc2C(=O)Nc2ccc(Cl)cc2)c1Cl	58
20	1000	> 5000							CN1CCN(Cc2c(C(=O)Nc3ccc(Cl)cc3C(=O)Nc3ccc(Cl)cc3)sc3ccccc23)CC1	
18	> 5000	> 5000							Cc1csc(C(=O)Nc2ccc(Cl)cc2C(=O)Nc2ccc(Cl)cc2)c1Cl	
12	> 5000	> 5000							COCCOCc1csc(C(=O)Nc2ccc(Cl)cc2C(=O)Nc2ccc(Cl)cc2)c1Cl	110
2.7	560	> 5000						8.9	CN(C)CCSCc1csc(C(=O)Nc2ccc(Cl)cc2C(=O)Nc2ccc(Cl)cc2)c1Cl	19
0.82	> 5000	> 5000							Cc1c(C(=O)Nc2ccc(Cl)cc2C(=O)Nc2ccc(Cl)cc2)sc2ccccc12	
5.7	2400	> 5000							O=C(Nc1ccc(Cl)cc1)c1cc(Cl)ccc1NC(=O)c1scc(COCC(O)CO)c1Cl (centres undefined)	30
12	4400	> 5000							Cc1sc(C(=O)Nc2ccc(Cl)cc2C(=O)Nc2ccc(Cl)cc2)c(Cl)c1CN1CCN(C)CC1	25
0.6	190	> 5000							CN(C)CCCN(C)Cc1csc(C(=O)Nc2ccc(Cl)cc2C(=O)Nc2ccc(Cl)cc2)c1Cl	2.9
1.6	2400	> 5000							O=C(Nc1ccc(Cl)cc1)c1cc(Cl)ccc1NC(=O)c1scc(Cn2cncn2)c1Cl	18
0.38	310	> 5000							CN1CCC(N(C)Cc2csc(C(=O)Nc3ccc(Cl)cc3C(=O)Nc3ccc(Cl)cc3)c2Cl)CC1	3.2
24	> 5000	> 5000							Cc1cc(Cl)c(C(=O)Nc2ccc(Cl)cc2C(=O)Nc2ccc(Cl)cc2)s1	
9	1200	> 5000							CN(C)Cc1c(C(=O)Nc2ccc(Cl)cc2C(=O)Nc2ccc(Cl)cc2)sc2ccccc12	
> 5000	> 5000	> 5000							Cc1cccc2sc(C(=O)Nc3ccc(Cl)cc3C(=O)Nc3ccc(Cl)cc3)c(Cl)c12	
0.52	120	> 5000							CCN(CC)CCN(C)Cc1csc(C(=O)Nc2ccc(Cl)cc2C(=O)Nc2ccc(Cl)cc2)c1Cl	3.9
